Measured values published in article PMC6300282, “Sulphamethazine derivatives as immunomodulating agents: New therapeutic strategies for inflammatory diseases” (PLoS ONE, 2018).
Like-named read-outs stand apart in the source and are kept apart here.

Experiments:
[1] = tested on: Pseudomonas aeruginosa (POA 286); test: Microplate Alamar Blue Assay, Pseudomonas aeruginosa; assay type: cell-based; details: Pseudomonas aeruginosa, read-out: Percentage (%) Inhibition, Pseudomonas aerugenosa
Procedure: (§1) The anti-bacterial activity of synthesized compound were evaluated by the Microplate Alamar Blue Assay. Staphylococcus aureus (ATCC 25923), Pseudomonas aeruginosa(POA 286), Salmonella typhi (ATCC 14028), Bacillus subtilis ATCC 6633) and Escherichia coli (ATCC 12022) were used in this study as a standard bacterial strains and they were obtained from microbial bank of PCMD, International Center for Chemical and Biological Sciences, University of Karachi, Karachi-75270, Pakistan. The bacterial colonies grown in Trypton Soya Agar (TSA) (Oxoid Limited, UK) were inoculated in Mueller Hinton Broth (MHB) (Oxoid Limited, UK) and incubated overnight at 37 °C. Fully grown bacterial cultures were then diluted to adjust with 0.5 McFarland Turbidity Index (equivalent to 1.5 × 10^8 CFU/mL). Stock solutions (4 mg/mL) of different test compounds were prepared in DMSO and 10μL each of these stock solutions were placed in well of flat bottom, polystyrene, sterile 96-wells plate except the positive control wells (media + bacteria). This gives 200μg/mL concentrations of compounds in final 200 μL solution. Each compound was run in triplicates. Finally, bacterial suspension (5 x 10^6 CFU/mL) was added in each well. Plates were sealed by parafilm and incubated at 37 °C for 18–22 hrs. Next day, 20 μL of 0.02% resazurin sodium salt dye (Chem-Impex-Int’LInc) was added in each well and incubated in shaking incubator at 80 rpm, 37 °C for 2–3 hrs. The color change from blue to reddish pink indicates the growth of bacteria. For quantitative analysis, plates were read at 570 nm and 600 nm in Multiskan GOmicroplate spectrophotometer, (Thermo Scientific, USA). The % inhibition of bacterial growth was calculated using below mentioned formula.
(§2) For the calculation of the % difference in reduction between treated and control cells in cytotoxicity/proliferation assays: =(εOX)λ2Aλ1-(εOX)λ1Aλ2oftestagent/(εOX)λ2A°λ1-(εOX)λ1A°λ2ofpositivegrowthcontrol×100

MTT cytotoxicity assay = assay type: cell-based, mouse; details: mouse; MTT, 48 hours; read-out: Cytotoxicity NIH-3T3 cell line (IC50)
Procedure: The cytotoxicity was recorded as concentration causing 50% growth inhibition (IC50).

[2] = tested on: Bacillus subtilis (ATCC 6633); test: Microplate Alamar Blue Assay, Bacillus subtilis; assay type: cell-based
Procedure: as §1, §2

[3] = tested on: Escherichia coli (ATCC 12022); test: Microplate Alamar Blue Assay, Escherichia coli; assay type: cell-based
Procedure: as §1, §2

[4] = tested on: Staphylococcus aureus (ATCC 25923); test: Microplate Alamar Blue Assay, Staphylococcus aureus; assay type: cell-based; details: Staphylococcus aureus
Procedure: as §1, §2

[5] = tested on: Salmonella typhi (ATCC 14028); test: Microplate Alamar Blue Assay, Salmonella typhi; assay type: cell-based; details: Salmonella enterica; 200 μg/mL; NI = No inhibition; read-out: Percentage (%) Inhibition, Slamonella typhi
Procedure: as §1, §2

[6] = ATCC6633, 200 μg/mL, NI = No inhibition, read-out: Percentage (%) Inhibition, Bacillus subtilis
[7] = ATCC12022, 200 μg/mL, NI = No inhibition, read-out: Percentage (%) Inhibition, Escherichia coli
[8] = ATCC25923, 200 μg/mL, NI = No inhibition, read-out: Percentage (%) Inhibition, Staphylococcus aureus

SMILES	inhibition at 200 µg/mL ([1]; 200 μg/mL, NI = No inhibition) [%]	IC50 (MTT cytotoxicity assay) [µM]	inhibition at 200 µg/mL [2, 6] [%]	inhibition at 200 µg/mL [3, 7] [%]	inhibition at 200 µg/mL [4, 8] [%]	inhibition at 200 µg/mL [5] [%]	inhibition at 200 µg/mL [1] [%]	IC50 at 48 h (MTT cytotoxicity assay) [µM]	inhibition at 200 µg/mL ([2]; ATCC6633, read-out: Percentage (%) Inhibition, Bacillus subtilis) [%]	inhibition at 200 µg/mL ([3]; ATCC12022, read-out: Percentage (%) Inhibition, Escherichia coli) [%]	inhibition at 200 µg/mL ([4]; ATCC25923, read-out: Percentage (%) Inhibition, Staphylococcus aureus) [%]
Cc1cc(C)nc(NS(=O)(=O)c2ccc(NC(=O)c3cccc(C(F)(F)F)c3F)cc2)n1 [Compound 14, N-(4-(N-(4,6-dimethylpyrimidin-2-yl)sulfamoyl)phenyl)-2-fluoro-3-(trifluoromethyl)benzamide]	1.04	> 30	< 0	< 0	27.4	25.4					
Cc1cc(C)nc(NS(=O)(=O)c2ccc(NC(=O)c3cccc(F)c3)cc2)n1 [Compound 16, N-(4-(N-(4,6-dimethylpyrimidin-2-yl)sulfamoyl)phenyl)-3-fluorobenzamide]	< 0	> 30	< 0	< 0	47.2	19.4					
Cc1cc(C)nc(NS(=O)(=O)c2ccc(NC(=O)c3ccccc3F)cc2)n1 [Compound 17, N-(4-(N-(4,6-dimethylpyrimidin-2-yl)sulfamoyl)phenyl)-2-fluorobenzamide]	< 0	> 30	< 0	< 0	24.3						
Cc1cc(C)nc(NS(=O)(=O)c2ccc(NC(=O)c3ccc(F)c(F)c3)cc2)n1 [Compound 18, N-(4-(N-(4,6-dimethylpyrimidin-2-yl)sulfamoyl)phenyl)-3,4-difluorobenzamide]	< 0	> 30	< 0	< 0	49.7	22.5					
Cc1cc(C)nc(NS(=O)(=O)c2ccc(NC(=O)c3ccc(C(F)(F)F)cc3)cc2)n1 [Compound 19, N-(4-(N-(4,6-dimethylpyrimidin-2-yl)sulfamoyl)phenyl)-4-(trifluoromethyl)benzamide]	2.37	> 30	< 0	< 0	49.4	0.99					
Cc1cc(C)nc(NS(=O)(=O)c2ccc(NC(=O)c3cccc(Cl)c3)cc2)n1 [Compound 21, 3-chloro-N-(4-(N-(4,6-dimethylpyrimidin-2-yl)sulfamoyl)phenyl)benzamide]	28	> 30	< 0	< 0	54.6	14.6					
Cc1cc(C)nc(NS(=O)(=O)c2ccc(NC(=O)c3ccc(Cl)cc3)cc2)n1 [Compound 22, 4-chloro-N-(4-(N-(4,6-dimethylpyrimidin-2-yl)sulfamoyl)phenyl)benzamide]	9.78	> 30	< 0	< 0	44.3	11.6					
Cc1cc(C)nc(NS(=O)(=O)c2ccc(NC(=O)c3cc(Cl)ccc3Cl)cc2)n1 [Compound 23, 2,5-dichloro-N-(4-(N-(4,6-dimethylpyrimidin-2-yl)sulfamoyl)phenyl)benzamide]	1.54	> 30	< 0	< 0	5.76	< 0					
Cc1cc(C)nc(NS(=O)(=O)c2ccc(NC(=O)c3ccc([N+](=O)[O-])cc3)cc2)n1 [Compound 25, N-(4-(N-(4,6-dimethylpyrimidin-2-yl)sulfamoyl)phenyl)-4-nitrobenzamide]	6.35	> 30	< 0	1.21	17.5	4.64					
Cc1cc(C)nc(NS(=O)(=O)c2ccc(NC(=O)c3cc([N+](=O)[O-])cc([N+](=O)[O-])c3)cc2)n1 [Compound 26, N-(4-(N-(4,6-dimethylpyrimidin-2-yl)sulfamoyl)phenyl)-3,5-dinitrobenzamide]						< 0	< 0	> 30	< 0	< 0	34.7
Cc1cc(C)nc(NS(=O)(=O)c2ccc(NC(=O)c3ccc([N+](=O)[O-])cc3Cl)cc2)n1 [Compound 27, 2-chloro-N-(4-(N-(4,6-dimethylpyrimidin-2-yl)sulfamoyl)phenyl)-4-nitrobenzamide]	< 0	> 30	< 0	< 0	50.1	3.72					
Cc1cc(C)nc(NS(=O)(=O)c2ccc(NC(=O)c3ccccc3Br)cc2)n1 [Compound 28, 2-Bromo-N-(4-(N-(4,6-dimethylpyrimidin-2-yl)sulfamoyl)phenyl)benzamide]	3.99	> 30	< 0	4.65	58.5	11.1					
Cc1cc(C)nc(NS(=O)(=O)c2ccc(NC(=O)c3ccc(Br)cc3)cc2)n1 [Compound 29, 4-Bromo-N-(4-(N-(4,6-dimethylpyrimidin-2-yl)sulfamoyl)phenyl)benzamide]	15	> 30	< 0	< 0	52.3	14.1					
Cc1cc(C)nc(NS(=O)(=O)c2ccc(NC(=O)c3cccc(Br)c3)cc2)n1 [Compound 30, 3-Bromo-N-(4-(N-(4,6-dimethylpyrimidin-2-yl)sulfamoyl)phenyl)benzamide]	< 0	> 30	< 0	< 0	34.2	4.26					
Cc1cc(C)nc(NS(=O)(=O)c2ccc(NC(=O)c3cccc(I)c3)cc2)n1 [Compound 31, N-(4-(N-(4,6-dimethylpyrimidin-2-yl)sulfamoyl)phenyl)-3-iodobenzamide]	< 0	> 30	< 0	< 0	13	< 0					
COc1cccc(C(=O)Nc2ccc(S(=O)(=O)Nc3nc(C)cc(C)n3)cc2)c1 [Compound 32, N-(4-(N-(4,6-dimethylpyrimidin-2-yl)sulfamoyl)phenyl)-3-methoxybenzamide]	< 0	> 30	< 0	< 0	32.9	19					
COc1cc(OC)cc(C(=O)Nc2ccc(S(=O)(=O)Nc3nc(C)cc(C)n3)cc2)c1 [Compound 33, N-(4-(N-(4,6-dimethylpyrimidin-2-yl)sulfamoyl)phenyl)-3,5-dimethoxybenzamide]	< 0	> 30	< 0	< 0	31.3	< 0					
Cc1ccc(C(=O)Nc2ccc(S(=O)(=O)Nc3nc(C)cc(C)n3)cc2)cc1 [Compound 34, N-(4-(N-(4,6-dimethylpyrimidin-2-yl)sulfamoyl)phenyl)-4-methylbenzamide]	15.4	> 30	< 0	< 0	< 0	0.65					
CC1COc2c(N3CCN(C)CC3)c(F)cc3c(=O)c(C(=O)O)cn1c23 (stereo not shown) [Ofloxacin, reference compound]	94.1		93.8	94.4	94.1	89.8					
